In publication PMC12037037 (Proceedings of the National Academy of Sciences of the …, 2025):

Legend:
C57BL/6J mice = assay: Novelty-induced locomotion; type: in vivo; conditions: 1 mg/kg
[1] = system: cultured rat embryonic cortical neurons; assay: Neuritogenesis assay (Sholl analysis, DIV6); type: cell-based
Protocol: Figure S8. […] (A) Sholl analysis of embryonic day 18 (E18) rat cortical
(D) Area under the curves of the Sholl plots
N values are shown within the bars. VEH =
Neuritogenesis Assays. Neuritogenesis Assays were performed as previously described (17) with slight modifications.
Briefly, 96 well plates were coated with poly-D-lysine and approximately 15,000 cells/well. Neurons were treated after 3 days in vitro (DIV3) for 1 h followed by a complete media change. Cells were incubated for an additional 3 days before fixing and staining for MAP2 on DIV6. Neurites were visualized using a chicken anti-MAP2 antibody (1:10,000; EnCor, CPCA-MAP2) and an anti-chicken IgG secondary antibody conjugated to Alexa Fluor 488 (Life Technologies, 1:500). Plates were imaged in DPBS on a Thermo Scientific CellInsight CX7 High-Content Screening Platform at 20x (N.A. = 0.45). Images were analyzed using the Simple Neurite Tracer and Sholl analysis plug-ins for ImageJ Fiji (version 1.51N). Sholl analysis circle radii = 2 µm increments. All images were taken and analyzed by an experimenter blinded to treatment conditions.

male Sprague Dawley rats = assay: Rat forced swim test (FST); type: in vivo; conditions: for Swimming (Figure 6B) / Immobility (Figure 6B): 24 h after administration; for Swimming (Figure 6B): VEH 22.10 ± 1.929; for Immobility (Figure 6B): VEH 37.20 ± 1.867
Protocol: (§1) Reads were aligned to the GRCm39 genome assembly using STAR, processed with Picard, and counted with the Subread software. Transcript inclusion criteria consisted of a minimum raw expression level of 25 transcripts in a minimum of 4 samples. Surrogate variable analysis was conducted with the sva package 2023 release v3.5.0 in R and normalization and differential expression analysis was performed with DESeq2 v4.3 with a baseMean threshold of 10. Heatmaps were created with the pheatmap v1.0.12 with sample-wise z-scores plotted and both row and column grouping allowed using pearson's distances and ward.D for clustering. Gene-wise selection criteria for heatmaps were a baseMean expression threshold of 50 to focus on robustly expressed genes, p value < 0.05, and presence in the top 250 genes sorted by absolute value of log2FC. Additionally, z score was capped at 2 for visualization purposes. Schizophrenia gene sets were extracted from a recent TWAS study (30).
(§2) For Figure S8G, the TWAS set was filtered for FDR < 0.01. Permutation testing was conducted to quantify the overlap of top genes from schizophrenia TWAS with the perm_test function from the bulkWarehouse package 2023 release v1.2.7.
Briefly, the intersection of top differentially expressed genes and top TWAS genes is compared to an empirical distribution created by calculating the intersection with our top DEGs when randomly sampling candidate genes from our dataset equal to the size of the TWAS sample. Selection criteria from the TWAS include an expression level of 25 transcripts in a minimum of 4 samples in our dataset, FDR < 0.01 from the TWAS and top 250 sorted by absolute value of log2FC. Selection criteria from our gene set were an expression level of 25 transcripts in a minimum of 4 samples, p value < 0.1 and top 250 sorted by absolute value of log2FC.
Rat Forced Swim Test (FST). This study was performed by Psychogenics (Paramus, NJ). Male Sprague Dawley rats were purchased from Envigo (Indianapolis, IN), and were 8 weeks old at the time of the experiments. Upon receipt, they were assigned unique identification numbers (tail marked) and group housed in ventilated cages with 3 rats per cage. All animals […]
remained housed in groups of three for the remainder of the study. All rats were acclimated to the colony room for up to one week prior to dosing. During the period of acclimation, rats were examined and handled daily, and weighed to assure adequate health and suitability. The room temperature was maintained between 20 °C and 23 °C with a relative humidity of 30%–70%. Lab Rodent Diet 5001 (W.F. Fisher, Cat # 11015) and water were provided ad libitum. Animals were randomly assigned across treatment groups. All testing was performed during the light phase of the light/dark cycle. Behavioral testing was conducted according to established protocols approved by the IACUC committee and PGI Standard Operation Procedures (SOP). Each forced swim chamber was constructed of clear acrylic (height = 40 cm; diameter = 20.3 cm). Only one rat was placed in the swim chamber at a time for each swim test. The water was changed and the chamber cleaned between each animal. The water depth was 16 cm in the first swim session (pre-test) and 30 cm in the second swim session (test). The water was maintained at 23 °C ± 1 °C for all swim sessions. At the end of each swim test rats were dried with paper towels and returned to the home cage. All animals were carefully monitored to ensure their safety in the swim test and any animal unable to maintain a posture with its nose above water was immediately removed from the water and not used further in the study. Animals were first subjected to a pre-test for 15 min. Immediately after the pre-test, they were administered compounds or VEH via i.p. injection (1 ml/kg). Racemic ketamine hydrochloride (10 mg/kg) was used as a positive control. A salt correction factor of 1.36 was used when preparing formulations of (+)-JRT to ensure that the dose corresponded to that of the free base. […]

male C57BL/6J mice = assay: PCP-induced locomotion (Psychogenics); type: in vivo
Protocol: IP) can block AMPH-induced hyperlocomotion in female, but not male, mice. (B) Pretreatment with (+)-JRT (1 mg/kg, IP) […]
AMPH = (+)-amphetamine; PCP = phencyclidine; VEH = vehicle; ns = not significant. *p < 0.05, **p < 0.01, ***p < 0.001, ****p < 0.0001, as compared to the comparator(s) indicated by a horizontal bar. See Methods and SI Appendix, Table S1 for full details on statistics.
(1 picture or pasted object on this page, not shown here) […]
PCP-Induced Locomotion. The PCP-induced hyperlocomotion assay was performed by Psychogenics using male C57BL/6J mice that were approximately 8 weeks old at the time of the experiments. The experiment was performed during the animal’s light cycle phase. On the day of testing, animals were acclimated to the experimental room for at least 1 h prior to treatment. Animals were then administered with VEH or JRT (IP, 10 mL/kg) and placed in holding cages for 30 min, after which mice were placed in the open field chambers (27.3 x 27.3 x 30.3; Med Associates Inc., St Albans, VT). Baseline activity was recorded for 30 min. Next, mice received either PCP (5 mg/kg, IP, 10 ml/kg) or VEH and were returned to the open field chambers for a 60 min test session. Locomotion was assessed using consecutive infrared beam breaks. At the end of each session, the chambers were thoroughly cleaned. […]
as §1, §2
Briefly, the intersection of top differentially expressed genes and top TWAS genes is compared to an empirical distribution created by calculating the intersection with our top DEGs when randomly sampling candidate genes from our dataset equal to the size of the TWAS sample. […]

human 5-HT2B receptor = biological target: T1, human 5-HT2B receptor (Homo sapiens, UniProt P41595); assay: IP1 functional assay (5-HT2BR); type: cell-based
T1 construct: host or cells: CHO
Protocol: (§3) IP1 Assay (5-HT2AR and 5-HT2CR). The 5-HT2AR and 5-HT2CR IPOne HTRF assays were performed at Epics
(§4) Therapeutics S.A. (Belgium, FAST-0505I) using conventional methods. Experiments were performed using the free bases
(§5) of (+)-JRT and (–)-JRT. Briefly, CHO-K1 cells expressing human recombinant 5-HT2AR grown to mid-log phase in culture
(§6) media without antibiotics were detached with PBS-EDTA, centrifuged, and resuspended in medium without antibiotics
(§7) buffer. Then, 20,000 cells were distributed in a 96-well plate and incubated overnight at 37 °C with 5% CO2. For agonist
(§8) were added to each well. The plate was incubated for 60 min at 37 °C with 5% CO2. After addition of the lysis buffer containing
(§9) IP1-d2 and anti-IP1 cryptate detection reagents, plates were incubated for 1 h at room temperature and fluorescence ratios
(§10) were measured according to the manufacturer’s specifications using the HTRF kit.
IP1 Assay (5-HT2BR). […]
(§11) Following incubation, the cells are lysed and the fluorescence acceptor (D2-
(§12) labeled IP1) and fluorescence donor (anti-IP1 antibody labeled with europium cryptate) were added. […]
(§13) temperature, the fluorescence transfer was measured at lex = 337 nm and lem = 620 and 665 nm using a microplate
(§14) reader (Envision, Perkin Elmer). The IP1 concentration was determined by dividing the signal measured at 665 nm by that
measured at 620 nm (ratio). […]

5-HT1A = 5-HT1A (Homo sapiens, UniProt P08908); assay: Functional assay at 5-HT1A (Fig. S4); type: cell-based
Source text: Figure S4. […] Radioligand binding (RLB) (top) and IP1 functional assays (bottom) for 5-HT1A (A), 5-HT5a (B), 5-HT6 (C), and 5-HT7 (D) receptors. Agonist or antagonist mode is indicated in the title of each graph. Data represent the mean ± SEM of 2 technical replicates.
5-carboxamidotryptamine; ND = not determined for incomplete curves.
(1 picture or pasted object on this page, not shown here)

5-HT2CR = biological target: T2, 5-HT2CR (Homo sapiens, UniProt P28335); assay: IP1 functional assay (5-HT2CR); type: cell-based; conditions: 5-HT2C, IP1, agonist mode
T2 construct: Epics Therapeutics S.A
T2 sequence (P28335 33-458): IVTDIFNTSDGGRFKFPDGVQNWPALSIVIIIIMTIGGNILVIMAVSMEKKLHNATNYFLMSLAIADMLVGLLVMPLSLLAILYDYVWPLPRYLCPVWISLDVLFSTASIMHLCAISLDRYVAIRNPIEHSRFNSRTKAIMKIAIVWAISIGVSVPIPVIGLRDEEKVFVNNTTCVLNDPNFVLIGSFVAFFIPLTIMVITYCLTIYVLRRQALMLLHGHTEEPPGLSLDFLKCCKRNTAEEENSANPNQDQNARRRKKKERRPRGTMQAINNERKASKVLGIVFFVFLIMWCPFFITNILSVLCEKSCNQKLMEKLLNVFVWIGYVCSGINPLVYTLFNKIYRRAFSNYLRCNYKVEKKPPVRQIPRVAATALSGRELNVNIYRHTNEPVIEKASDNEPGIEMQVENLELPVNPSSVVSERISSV
Protocol: as §3, §4, §5, §6, §7, §8, §9, §10
IP1 Assay (5-HT2BR). […]
as §11, §12, §13, §14
measured at 620 nm (ratio). […]

T1 sequence (P41595 whole entry): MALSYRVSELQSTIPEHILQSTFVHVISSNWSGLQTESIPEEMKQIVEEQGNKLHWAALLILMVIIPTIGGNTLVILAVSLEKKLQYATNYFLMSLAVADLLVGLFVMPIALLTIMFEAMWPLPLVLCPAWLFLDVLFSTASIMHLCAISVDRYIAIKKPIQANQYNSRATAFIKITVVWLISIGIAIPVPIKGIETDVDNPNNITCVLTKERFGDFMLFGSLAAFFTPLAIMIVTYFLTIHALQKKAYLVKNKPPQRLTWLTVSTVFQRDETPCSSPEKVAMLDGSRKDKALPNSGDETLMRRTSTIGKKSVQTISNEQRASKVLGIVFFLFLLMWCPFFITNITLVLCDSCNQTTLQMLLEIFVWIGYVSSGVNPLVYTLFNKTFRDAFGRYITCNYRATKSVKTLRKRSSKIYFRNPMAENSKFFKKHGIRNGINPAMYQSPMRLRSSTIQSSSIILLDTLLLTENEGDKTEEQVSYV
Chain of 5-HT1A (P08908 whole entry): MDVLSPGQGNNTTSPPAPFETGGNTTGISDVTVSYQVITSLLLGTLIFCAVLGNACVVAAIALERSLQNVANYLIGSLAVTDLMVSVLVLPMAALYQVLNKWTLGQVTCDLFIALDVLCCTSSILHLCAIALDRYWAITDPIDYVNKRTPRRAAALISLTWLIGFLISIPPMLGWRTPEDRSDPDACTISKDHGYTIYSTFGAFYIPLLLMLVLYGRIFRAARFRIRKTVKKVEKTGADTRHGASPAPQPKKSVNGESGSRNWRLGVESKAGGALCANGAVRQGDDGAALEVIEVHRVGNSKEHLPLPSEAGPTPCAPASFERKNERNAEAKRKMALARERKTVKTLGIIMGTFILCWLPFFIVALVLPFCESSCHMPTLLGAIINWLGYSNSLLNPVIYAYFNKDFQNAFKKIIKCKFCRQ

In the case of `CCN(CC)C(=O)[C@@H]1C=C2c3cccc4ccn(c34)C[C@H]2N(C)C1` [(+)-JRT], the Effect on locomotion (C57BL/6J mice; novel arena 30 min) is reported as “does not impact locomotion”, the Serotonin syndrome-like responses (C57BL/6J mice; backward walking, forepaw treading, hind limb abduction, low body posture, Straub tail, tremor) is reported as “does not impact locomotion (SI Appendix, Fig. S10) or produce any serotonin syndrome-like responses” and the “Nmax (maximum number of crossings of the Sholl plots)” value ([1]; 1 μM, DIV6, compared to vehicle control) is reported as “increased Nmax values to a greater extent than CLZ”. For the same molecule, the “Area under the curves of the Sholl plots (Figure S8D)” value ([1]; 1 µM, DIV6, VEH 1.000 ± 0.05010, mean ± SEM) was 1.193 ± 0.05057, the “Total branches (Figure S8C)” value ([1]; 1 µM, DIV6, VEH 2.325 ± 0.2641, mean ± SEM) was 4.121 ± 0.3838 and the “Number of primary dendrites (Figure S8B)” value ([1]; 1 µM, DIV6, VEH 6.275 ± 0.2292, mean ± SEM) was 8.152 ± 0.2824. The “Swimming (Figure 6B)” value (male Sprague Dawley rats; 0.3mg/kg IP) was 31.70 ± 2.534, the “Immobility (Figure 6B)” value (male Sprague Dawley rats; 0.3mg/kg IP) was 27.20 ± 2.546 and the “Swimming (Figure 6B)” value (male Sprague Dawley rats; 1.0mg/kg IP) was 31.50 ± 1.778. For the same molecule, the “Immobility (Figure 6B)” value (male Sprague Dawley rats; 1.0mg/kg IP) was 27.70 ± 1.850, the “Potency relative to ketamine in the forced swim test” value (male Sprague Dawley rats; lowest effective dose not determined) was “at least 100 fold” and the “Locomotion, infrared beam breaks (Figure 11B)” value (from here on “Locomotion … (Figure 11B)”) (male C57BL/6J mice; (+)-JRT (0.1) + PCP 5 mg/kg IP) was 30482 ± 2310. The “Locomotion … (Figure 11B)” value (male C57BL/6J mice; (+)-JRT (0.3) + PCP 5 mg/kg IP) was 26618 ± 2425, the “Locomotion … (Figure 11B)” value (male C57BL/6J mice; (+)-JRT (1) + PCP 5 mg/kg IP) was 27253 ± 2401 and the Emax (human 5-HT2B receptor) was 48%. For the same molecule, the “Functional activity at 5-HT1A” value (5-HT1A) was “agonist or partial agonist” and the Emax (5-HT2CR) was 89%.
